Experimental data taken from patent publication US11167059B2, “Compositions with reactive ingredients, and wound dressings, apparatuses, and methods” (KCI Licensing, Inc., priority 2010, dated 2021).

How the values were obtained:
Assay type in all cases: cell-based
MRSA [1] = experiment: Log reduction, single cycle, MRSA; conditions: for ΔLog - MRSA 30 sec.: 30 sec. exposure; for ΔLog - MRSA 5 min.: 5 min. exposure
Experimental: (§1) Referring now to FIG. 17, the experiments described above for FIG. 14 were also performed with additional foams, one foam in which 1 gram of Calcium hypochlorite salt was infused (D100, shown as left column for each cycle), and one foam in which 2 grams of Calcium hypochlorite salt was dispersed (D200, shown as right column for each cycle). […] As discussed additionally below, the minimum concentration is significant because testing identified concentrations of hypochlorite-ion as low as 0.5-0.7 mM to have effective antibacterial and antimicrobial properties. Additional testing was performed to measure the zone of inhibition (ZOI) and Log Reduction of microbes for various samples of released aqueous solutions having various concentrations of hypochlorite ion, as listed in Tables 2 and 3. Table 2 lists ZOI and Log reduction data for a single cycle measured at hold times (exposure duration) of 30 seconds and 5 minutes of bacterial exposure to solution. Table 3 lists ZOI and Log reduction data for multiple cycles (each cycle including introduction of hypochlorite solution, and removal of solution prior to beginning next cycle). In the ZOI experimentation, foam discs having a diameter of 8 millimeters (mm) and a height of 5 mm were each saturated with hypochlorite-ion solution as indicated. Table 3 also lists the initial microbe count in log form (10^X, where X is listed in Table 2), log reduction in microbe count, and ZOI in mm. For the data of Table 3, the initial concentration (1×) of hypochlorite ion in solution was 5.7 mM of hypochlorite ion, which corresponds to 0.041% w/v of Ca(OCl)^2. In the Log reduction experimentation, the microbes were exposed to the respective concentration of solution for 30 seconds per cycle. […] The bold entries in Table 3 are indicative of substantially all microbes being killed. In the biofilm eradication cycles listed in Table 6 below, probes were cultured with microbes and incubated to permit formation of a biofilm on the probe. The probe was then exposed to solutions having various concentrations of Calcium hypochlorite solution for multiple cycles, with each cycle including exposure of the probe to solution for a duration of 5 minutes.

MRSA [2] = experiment: zone of inhibition (ZOI), foam discs saturated with solution, MRSA; conditions: 8 mm foam disc saturated with solution
Experimental: as §1

C. alb. = experiment: zone of inhibition (ZOI), foam discs saturated with solution, C. alb.; conditions: 8 mm foam disc saturated with solution
Experimental: as §1

[3] = system: Pseudomonas aeruginosa ATCC 27853; experiment: Log reduction, multiple cycles, P. aeruginosa; conditions: 30 seconds per cycle
Experimental: as §1

[4] = system: Staphylococcus aureus ATCC 10832; experiment: Log reduction, multiple cycles, S. aureus ATCC 10832; conditions: 30 seconds per cycle
Experimental: as §1

[5] = system: Pseudomonas aeruginosa ATCC 27853; experiment: Minimum Inhibitory Concentration (MIC), P. aeruginosa; conditions: % w/v Ca(OCl)2 in water
[6] = system: Staphylococcus aureus ATCC 10832; experiment: Minimum Inhibitory Concentration (MIC), S. aureus ATCC 10832; conditions: % w/v Ca(OCl)2 in water
[7] = system: Staphylococcus aureus USA 400 (MRSA); experiment: Minimum Inhibitory Concentration (MIC), S. aureus USA 400 (MRSA); conditions: % w/v Ca(OCl)2 in water
[8] = system: Pseudomonas aeruginosa ATCC 27853; experiment: Minimum Bactericidal Concentration (MBC), P. aeruginosa; conditions: % w/v Ca(OCl)2 in water
Experimental: as §1, with “The probe was then exposed to solutions having various concentrations of Calcium hypochlorite solution for multiple cycles, with each cycle including exposure of the probe to solution for a duration of 5 minutes.” left out

[9] = system: Staphylococcus aureus ATCC 10832; experiment: Minimum Bactericidal Concentration (MBC), S. aureus ATCC 10832; conditions: % w/v Ca(OCl)2 in water
Experimental: as §1, with “The probe was then exposed to solutions having various concentrations of Calcium hypochlorite solution for multiple cycles, with each cycle including exposure of the probe to solution for a duration of 5 minutes.” left out

[10] = system: Staphylococcus aureus USA 400 (MRSA); experiment: Minimum Bactericidal Concentration (MBC), S. aureus USA 400 (MRSA); conditions: % w/v Ca(OCl)2 in water
Experimental: as §1, with “The probe was then exposed to solutions having various concentrations of Calcium hypochlorite solution for multiple cycles, with each cycle including exposure of the probe to solution for a duration of 5 minutes.” left out

[11] = system: Pseudomonas aeruginosa ATCC 27853; experiment: Minimum Biofilm Eradication Concentration (MBEC), P. aeruginosa; conditions: Pseudomonas aeruginosa ATCC 27853 biofilm on probe, 5 minutes per cycle, % w/v Ca(OCl)2
Experimental: as §1, with “The probe was then exposed to solutions having various concentrations of Calcium hypochlorite solution for multiple cycles, with each cycle including exposure of the probe to solution for a duration of 5 minutes.” left out

[12] = system: Staphylococcus aureus USA 400 (MRSA); experiment: Minimum Biofilm Eradication Concentration (MBEC), S. aureus USA 400 (MRSA); conditions: Staphylococcus aureus USA 400 (MRSA) biofilm on probe, 5 minutes per cycle, % w/v Ca(OCl)2
Experimental: as §1, with “The probe was then exposed to solutions having various concentrations of Calcium hypochlorite solution for multiple cycles, with each cycle including exposure of the probe to solution for a duration of 5 minutes.” left out

[13] = Sample Dilution 1x (5.7 mM hypochlorite ion, 0.041% w/v Ca(OCl)2)
[14] = Sample Dilution 2x of 5.7 mM hypochlorite ion
[15] = Sample Dilution 4x of 5.7 mM hypochlorite ion
[16] = Sample Dilution 8x of 5.7 mM hypochlorite ion (lowest concentration, 0.7 mM)

hypochlorite ion [OCl^− Solutions]
ΔLog - MRSA 30 sec. (MRSA [1]; 0.8 mM HOCl/OCl−): 2.96
ΔLog - MRSA 5 min. (MRSA [1]; 0.8 mM HOCl/OCl−): 2.99
ΔLog - MRSA 30 sec. (MRSA [1]; 1.9 mM HOCl/OCl−): 2.93
ΔLog - MRSA 5 min. (MRSA [1]; 1.9 mM HOCl/OCl−): 4.09
ΔLog - MRSA 30 sec. (MRSA [1]; 3.1 mM HOCl/OCl−): 3.55
ΔLog - MRSA 5 min. (MRSA [1]; 3.1 mM HOCl/OCl−): >7.13
ΔLog - MRSA 30 sec. (MRSA [1]; 4.0 mM HOCl/OCl−): 5.52
ΔLog - MRSA 5 min. (MRSA [1]; 4.0 mM HOCl/OCl−): >7.13
ΔLog - MRSA 30 sec. (MRSA [1]; 10.7 mM HOCl/OCl−): >6.93
ΔLog - MRSA 5 min. (MRSA [1]; 10.7 mM HOCl/OCl−): >7.13
ΔLog - MRSA 30 sec. (MRSA [1]; 15.7 mM HOCl/OCl−): >6.93
ΔLog - MRSA 5 min. (MRSA [1]; 15.7 mM HOCl/OCl−): >7.13
ZOI, D in mm MRSA (MRSA [2]; 0.8 mM HOCl/OCl−): 0.0 mm
ZOI, D in mm MRSA (MRSA [2]; 1.9 mM HOCl/OCl−): 0.0 mm
ZOI, D in mm MRSA (MRSA [2]; 3.1 mM HOCl/OCl−): 0.0 mm
ZOI, D in mm MRSA (MRSA [2]; 4.0 mM HOCl/OCl−): 0.0 mm
ZOI, D in mm MRSA (MRSA [2]; 10.7 mM HOCl/OCl−): 13.0 mm
ZOI, D in mm MRSA (MRSA [2]; 15.7 mM HOCl/OCl−): 13.0 mm
ZOI, D in mm C. alb. (C. alb.; 0.8 mM HOCl/OCl−): 15.0 mm
ZOI, D in mm C. alb. (C. alb.; 1.9 mM HOCl/OCl−): 24.3 mm
ZOI, D in mm C. alb. (C. alb.; 3.1 mM HOCl/OCl−): 22.0 mm
ZOI, D in mm C. alb. (C. alb.; 4.0 mM HOCl/OCl−): 34.3 mm
ZOI, D in mm C. alb. (C. alb.; 10.7 mM HOCl/OCl−): 45.7 mm
ZOI, D in mm C. alb. (C. alb.; 15.7 mM HOCl/OCl−): 44.3 mm
Log Reduction Pseudomonas aeruginosa ATCC 27853 1 Cycle [3, 13]: −0.16
Log Reduction Pseudomonas aeruginosa ATCC 27853 3 Cycles [3, 13]: 5.87
Log Reduction Pseudomonas aeruginosa ATCC 27853 5 Cycles [3, 13]: 5.83
Log Reduction Pseudomonas aeruginosa ATCC 27853 1 Cycle [3, 14]: −0.98
Log Reduction Pseudomonas aeruginosa ATCC 27853 3 Cycles [3, 14]: 5.87
Log Reduction Pseudomonas aeruginosa ATCC 27853 5 Cycles [3, 14]: 5.83
Log Reduction Pseudomonas aeruginosa ATCC 27853 1 Cycle [3, 15]: −0.48
Log Reduction Pseudomonas aeruginosa ATCC 27853 3 Cycles [3, 15]: 3.92
Log Reduction Pseudomonas aeruginosa ATCC 27853 5 Cycles [3, 15]: 5.83
Log Reduction Pseudomonas aeruginosa ATCC 27853 1 Cycle [3, 16]: −1.11
Log Reduction Pseudomonas aeruginosa ATCC 27853 3 Cycles [3, 16]: 1.26
Log Reduction Pseudomonas aeruginosa ATCC 27853 5 Cycles [3, 16]: 5.39
Log Reduction Staphylococcus aureus ATCC 10832 1 Cycle [4, 13]: 3.21
Log Reduction Staphylococcus aureus ATCC 10832 3 Cycles [4, 13]: 2.82
Log Reduction Staphylococcus aureus ATCC 10832 5 Cycles [4, 13]: 2.66
Log Reduction Staphylococcus aureus ATCC 10832 1 Cycle [4, 14]: 3.21
Log Reduction Staphylococcus aureus ATCC 10832 3 Cycles [4, 14]: 2.82
Log Reduction Staphylococcus aureus ATCC 10832 5 Cycles [4, 14]: 2.66
Log Reduction Staphylococcus aureus ATCC 10832 1 Cycle [4, 15]: 3.21
Log Reduction Staphylococcus aureus ATCC 10832 3 Cycles [4, 15]: 2.82
Log Reduction Staphylococcus aureus ATCC 10832 5 Cycles [4, 15]: 2.66
Log Reduction Staphylococcus aureus ATCC 10832 1 Cycle [4, 16]: 3.21
Log Reduction Staphylococcus aureus ATCC 10832 3 Cycles [4, 16]: 2.82
Log Reduction Staphylococcus aureus ATCC 10832 5 Cycles [4, 16]: 2.66
Minimum Inhibitory Concentration (MIC) 1 Cycle ([5]; 1 Cycle): <0.005% w/v
Minimum Inhibitory Concentration (MIC) 3 Cycles ([5]; 3 Cycles): <0.005% w/v
Minimum Inhibitory Concentration (MIC) 5 Cycles ([5]; 5 Cycles): <0.005% w/v
Minimum Inhibitory Concentration (MIC) 1 Cycle ([6]; 1 Cycle): <0.005% w/v
Minimum Inhibitory Concentration (MIC) 3 Cycles ([6]; 3 Cycles): <0.005% w/v
Minimum Inhibitory Concentration (MIC) 5 Cycles ([6]; 5 Cycles): <0.005% w/v
Minimum Inhibitory Concentration (MIC) 1 Cycle ([7]; 1 Cycle): <0.005% w/v
Minimum Inhibitory Concentration (MIC) 3 Cycles ([7]; 3 Cycles): <0.005% w/v
Minimum Inhibitory Concentration (MIC) 5 Cycles ([7]; 5 Cycles): <0.005% w/v
Minimum Bactericidal Concentration (MBC) 1 Cycle ([8]; 1 Cycle): <0.005% w/v
Minimum Bactericidal Concentration (MBC) 3 Cycles ([8]; 3 Cycles): <0.005% w/v
Minimum Bactericidal Concentration (MBC) 5 Cycles ([8]; 5 Cycles): <0.005% w/v
Minimum Bactericidal Concentration (MBC) 1 Cycle ([9]; 1 Cycle): <0.005% w/v
Minimum Bactericidal Concentration (MBC) 3 Cycles ([9]; 3 Cycles): <0.005% w/v
Minimum Bactericidal Concentration (MBC) 5 Cycles ([9]; 5 Cycles): <0.005% w/v
Minimum Bactericidal Concentration (MBC) 1 Cycle ([10]; 1 Cycle): <0.005% w/v
Minimum Bactericidal Concentration (MBC) 3 Cycles ([10]; 3 Cycles): <0.005% w/v
Minimum Bactericidal Concentration (MBC) 5 Cycles ([10]; 5 Cycles): <0.005% w/v
Minimum Biofilm Eradication Concentration (MBEC) 1 Cycle ([11]; 1 Cycle): >0.041% w/v
Minimum Biofilm Eradication Concentration (MBEC) 3 Cycles ([11]; 3 Cycles): 0.021% w/v
Minimum Biofilm Eradication Concentration (MBEC) 5 Cycles ([11]; 5 Cycles): 0.041% w/v
Minimum Biofilm Eradication Concentration (MBEC) 1 Cycle ([12]; 1 Cycle): <0.005% w/v
Minimum Biofilm Eradication Concentration (MBEC) 3 Cycles ([12]; 3 Cycles): <0.005% w/v
Minimum Biofilm Eradication Concentration (MBEC) 5 Cycles ([12]; 5 Cycles): <0.005% w/v
